Consider 26 compounds from BindingDB's records for doi:10.7270/Q2028PXQ (The Scripps Research Institute Molecular Screening Center, 2007).

For the first assay, the target named is Steroidogenic factor 1 (Homo sapiens, UniProt Q13285). The experiment in a line: SF-1 driven luciferase reporter response, dose response, counter-screen for RORA activator project, CHO-K1 cells (AID 695).
Chain of Steroidogenic factor 1 (Q13285 whole entry): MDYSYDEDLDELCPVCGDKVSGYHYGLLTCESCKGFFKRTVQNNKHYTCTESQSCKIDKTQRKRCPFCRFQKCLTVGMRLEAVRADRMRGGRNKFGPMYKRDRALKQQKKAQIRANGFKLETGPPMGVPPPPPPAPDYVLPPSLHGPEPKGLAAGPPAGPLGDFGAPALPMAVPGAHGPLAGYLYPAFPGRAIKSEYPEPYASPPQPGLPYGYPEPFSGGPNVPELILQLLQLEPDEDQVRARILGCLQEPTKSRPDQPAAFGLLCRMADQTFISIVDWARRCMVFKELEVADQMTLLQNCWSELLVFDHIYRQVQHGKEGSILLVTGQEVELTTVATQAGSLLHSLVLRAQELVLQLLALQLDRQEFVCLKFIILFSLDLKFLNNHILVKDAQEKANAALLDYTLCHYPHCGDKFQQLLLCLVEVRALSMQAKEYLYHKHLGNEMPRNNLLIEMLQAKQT
Settings: not given
For the compound `Cn1cccc1C(=O)OCc1csc(-c2ccccc2)n1` [(2-phenyl-1,3-thiazol-4-yl)methyl 1-methylpyrrole-2-carboxylate], the EC50 was found to be 0.129 µM. The same measure, in the same setting: with `CCOC(=O)CSc1nc2cc(OCC)ccc2cc1C#N` [(3-Cyano-7-ethoxy-quinolin-2-ylsulfanyl)-acetic acid ethyl ester] the figure was 3.28 µM; with `CC1=CCC(COC(=O)Nc2ccccc2)CC1` (stereo unspecified) [(4-methylcyclohex-3-en-1-yl)methyl N-phenylcarbamate], 1.24 µM; with `CCN(CC)C(=O)Oc1ccc2c(=O)c(-c3ccccc3)coc2c1` [(4-oxidanylidene-3-phenyl-chromen-7-yl) N,N-diethylcarbamate], 0.826 µM. On the same count and under the same terms, with `CCOC(=O)Nc1ccc2c(c1)Nc1ccccc1S2` [(10H-Phenothiazin-2-yl)-carbamic acid ethyl ester] the figure was > 3.67 µM; with `C=CCOc1ccc(C=CC(C)N=O)cc1` (stereo unspecified) [(E)-4-(4-allyloxyphenyl)but-3-en-2-one oxime], 1.02 µM; with `CCOc1ccc(C=CC(C)N=O)cc1` (stereo unspecified) [(Z)-4-(4-ethoxyphenyl)-3-buten-2-one oxime], > 0.407 µM. Same read-out and setting: under `CC(C)CNS(=O)(=O)c1ccc(C(=O)Nc2ccc3c(c2)OCCO3)cc1` [MLS000032888] stands 5.53 µM. Regarding `COc1ccc(C(O)P(=O)(O)CCc2ccccc2)cc1` (stereo unspecified) [MLS000038577], the EC50 was > 99 µM. Same read-out and setting: under `COc1ccc(C(=O)n2c(-c3ccco3)nc3ccccc32)cc1` [MLS000039368] stands 4.8 µM.

In the case of `COc1ccccc1-c1nnc(NC(C)=O)s1` [MLS000041972], the EC50 stood at 1.3 µM. Against the preceding compound, the EC50 is about 3.7-fold lower.

`CCn1c(Cn2nnc(-c3ccccc3)n2)nnc1SCC(=O)Nc1ccc(C(C)=O)cc1` [MLS000068275] registered an EC50 of 2.15 µM.

Compound `CCOc1ccc2nc(NC(=O)c3cnccn3)sc2c1` [MLS000070707] registered an EC50 of 0.14 µM. This EC50 lies about 15-fold lower than the previous one. With `COc1ccc2nc(NC(=O)CSc3nnc(-c4ccoc4C)n3C)sc2c1` [MLS000073639], the midpoint of the response, the EC50, lay at 4.83 µM. As to `CCc1nnc2c3cnn(-c4ccccc4)c3ncn12` [MLS000080478], the EC50 worked out at 5.08 µM. Turning to `O=C(NCc1cccs1)c1noc2c1CCCC2` [MLS000087354], the 50% effective concentration (EC50) amounted to 5.05 µM. The EC50 values of the last two compounds are within 1.5-fold of each other. Take `Cc1ccc2c(c1)c1c3n2CCCNC3CCC1` (stereo unspecified) [MLS000105423]: the EC50 is > 99 µM. Turning to `COc1ccc(CCC(=O)Nc2ccc3c(c2)OCCO3)cc1` [MLS000110197], the concentration for a half-maximal effect (EC50) was > 99 µM. On to `CCOc1ccc2nc(N3CCC(C(=O)N4CCN(c5ccccn5)CC4)CC3)sc2c1` [MLS000119552], for which the EC50 is > 99 µM.

Consider `O=C(Nc1nnc(C23CC4CC(CC(C4)C2)C3)s1)c1ccco1` [N-[5-(1-adamantyl)-1,3,4-thiadiazol-2-yl]furan-2-carboxamide], for which the midpoint of the response, the EC50, lay at 0.257 µM.

Consider `O=C(Nc1ccc2nc(-c3ccc(Br)o3)[nH]c2c1)c1cccs1` [SMR000046012], for which the half-maximal effective concentration (EC50) turned out to be 4.11 µM. With `Oc1ccc(Cl)cc1C=Nc1nc2ccccc2[nH]1` [SMR000103225], the EC50 was > 99 µM. As for `Cc1nc(N=CN(C)C)sc1C(=O)Nc1ccccc1` [SMR000107046], the EC50 was determined as 6.15 µM. `Cc1c(C(=O)OCC2CCCO2)[nH]c2c1C(=O)CC(c1ccco1)C2` (stereo unspecified) [oxolan-2-ylmethyl 6-(furan-2-yl)-3-methyl-4-oxo-1,5,6,7-tetrahydroindole-2-carboxylate]: a half-maximal response (EC50) required 1.23 µM.

The assay is the same for the next values; noted with them: inactive by the depositor's call.
Turning to `O=C(NC1CCCC1)c1cc(-c2cccs2)on1` [MLS000087238], it took 10.9 µM to reach a half-maximal effect (EC50). The same measure, in the same setting: under `O=C(CSc1nc[nH]n1)Nc1nnc(-c2ccccc2)s1` [SMR000091719] stands 12.7 µM.

By EC50 is commonly meant the concentration at which the effect is half-maximal. The low end stands for greater potency, the high end for weaker potency.
